The assay concerns the target PI3K-alpha (Homo sapiens (Human), UniProt P42336). In words: HTRF PI3K biochemical assay, alpha isoform. The settings on record: ratio PI3K-alpha IC50 value/PI3K-delta IC50 value.
Chain of PI3K-alpha (P42336 whole entry, looked up, canonical isoform): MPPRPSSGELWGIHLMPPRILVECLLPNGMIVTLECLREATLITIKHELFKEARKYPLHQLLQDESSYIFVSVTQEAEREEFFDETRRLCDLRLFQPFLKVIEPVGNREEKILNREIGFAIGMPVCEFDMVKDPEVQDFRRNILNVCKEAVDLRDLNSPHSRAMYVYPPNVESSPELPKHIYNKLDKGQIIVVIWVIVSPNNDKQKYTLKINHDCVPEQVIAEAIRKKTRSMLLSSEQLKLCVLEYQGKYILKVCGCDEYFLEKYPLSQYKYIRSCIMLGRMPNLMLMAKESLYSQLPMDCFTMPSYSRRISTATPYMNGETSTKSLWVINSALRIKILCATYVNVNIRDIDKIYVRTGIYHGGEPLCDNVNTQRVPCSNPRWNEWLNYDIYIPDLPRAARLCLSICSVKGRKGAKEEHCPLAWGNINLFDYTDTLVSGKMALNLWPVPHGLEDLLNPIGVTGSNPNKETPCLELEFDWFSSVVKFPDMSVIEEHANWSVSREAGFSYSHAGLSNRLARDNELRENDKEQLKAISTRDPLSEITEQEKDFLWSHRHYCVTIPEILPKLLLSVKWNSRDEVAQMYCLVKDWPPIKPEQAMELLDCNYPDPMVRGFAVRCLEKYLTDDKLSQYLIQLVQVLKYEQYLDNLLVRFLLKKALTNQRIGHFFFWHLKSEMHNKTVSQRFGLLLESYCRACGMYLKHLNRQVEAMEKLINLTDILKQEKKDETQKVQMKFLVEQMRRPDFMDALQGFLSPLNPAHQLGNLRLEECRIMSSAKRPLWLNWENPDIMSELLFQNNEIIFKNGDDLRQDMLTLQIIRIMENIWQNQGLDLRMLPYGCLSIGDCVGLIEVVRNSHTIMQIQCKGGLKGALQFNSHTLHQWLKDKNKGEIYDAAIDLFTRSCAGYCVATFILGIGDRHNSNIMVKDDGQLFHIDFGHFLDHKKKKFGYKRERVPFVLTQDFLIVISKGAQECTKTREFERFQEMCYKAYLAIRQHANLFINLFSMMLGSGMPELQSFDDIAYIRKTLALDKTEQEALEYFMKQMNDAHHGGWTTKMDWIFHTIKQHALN
Chain of PI3K-alpha (P27986 whole entry partner, looked up, canonical isoform): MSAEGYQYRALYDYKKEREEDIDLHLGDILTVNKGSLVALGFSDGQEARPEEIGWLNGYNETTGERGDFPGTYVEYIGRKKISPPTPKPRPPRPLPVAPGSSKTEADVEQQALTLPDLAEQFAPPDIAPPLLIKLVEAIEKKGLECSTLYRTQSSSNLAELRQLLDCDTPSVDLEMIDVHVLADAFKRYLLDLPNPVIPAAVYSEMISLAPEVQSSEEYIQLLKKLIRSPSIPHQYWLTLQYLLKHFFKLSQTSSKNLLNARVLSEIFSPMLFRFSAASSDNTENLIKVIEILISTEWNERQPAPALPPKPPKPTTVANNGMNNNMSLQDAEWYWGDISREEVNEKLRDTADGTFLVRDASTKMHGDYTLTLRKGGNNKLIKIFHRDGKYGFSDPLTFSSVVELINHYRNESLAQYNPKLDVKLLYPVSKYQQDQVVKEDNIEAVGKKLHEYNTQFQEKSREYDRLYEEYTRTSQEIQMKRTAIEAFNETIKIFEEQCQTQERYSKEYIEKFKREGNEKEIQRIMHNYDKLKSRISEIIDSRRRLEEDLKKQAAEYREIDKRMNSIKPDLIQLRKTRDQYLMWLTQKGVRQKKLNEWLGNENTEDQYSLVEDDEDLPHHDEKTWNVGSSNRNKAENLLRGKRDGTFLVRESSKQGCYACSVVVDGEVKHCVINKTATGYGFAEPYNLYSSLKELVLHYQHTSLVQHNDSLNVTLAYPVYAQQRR
Regarding `CCn1c(-c2cnc(C)nc2)nc2c(O[C@H]3CCN(C(=O)C4CCOC4)C3)ncnc21` (stereo partly drawn) [Compound 2-113, 9-ethyl-8-(2-methylpyrimidin-5-yl)-6-{[(3S)-1-(tetrahydrofuran-3-ylcarbonyl)pyrrolidin-3-yl]oxy}-9H-purine], the “Relative Selectivity versus PI3Kalpha” value is listed as over 10. The figure for `CCn1c(N2CCC(c3ccccc3)CC2)nc2c(O[C@H]3CCN(C(=O)OC(C)(C)C)C3)ncnc21` [Compound 13-5, tert-butyl (3S)-3-{[9-ethyl-8-(4-phenylpiperidin-1-yl)-9H-purin-6-yl]oxy}pyrrolidine-1-carboxylate] is over 10; for `CCn1c(-c2cnc(C)nc2)nc2c(O[C@H]3CCN(C(=O)N(C)c4ccccc4)C3)ncnc21` [Compound 5-17, (3S)-3-{[9-ethyl-8-(2-methylpyrimidin-5-yl)-9H-purin-6-yl]oxy}-N-methyl-N-phenylpyrrolidine-1-carboxamide] it is over 10; for `CCC(=O)N1CC[C@H](Oc2ncnc3c2nc(-c2cnc(C(C)(C)C)s2)n3C)C1` [Compound 2-96, (S)-1-(3-((8-(2-(tert-butyl)thiazol-5-yl)-9-methyl-9H-purin-6-yl)oxy)pyrrolidin-1-yl)propan-1-one] it is over 10. `CCn1ncc(-c2nc3c(O[C@H]4CCN(C(=O)c5nc6cc(Cl)ccn6n5)C4)ncnc3n2C)c1C` [Compound 2-47, 6-({(3S)-1-[(7-chloro[1,2,4]triazolo[1,5-a]pyridin-2-yl)carbonyl]pyrrolidin-3-yl}oxy)-8-(1-ethyl-5-methyl-1H-pyrazol-4-yl)-9-methyl-9H-purine]: the “Relative Selectivity versus PI3Kalpha” value is on record as 1. In the case of `Cn1c(-c2ccc(-n3ccnc3)cc2)nc2c(O[C@H]3CCN(C(=O)OC(C)(C)C)C3)ncnc21` [Compound 1-25, tert-butyl (3S)-3-({8-[4-(1H-imidazol-1-yl)phenyl]-9-methyl-9H-purin-6-yl}oxy)pyrrolidine-1-carboxylate], the “Relative Selectivity versus PI3Kalpha” value is over 10.

`CCn1ncc(-c2nc3c(O[C@H]4CCN(C(=O)NC(C)C)C4)ncnc3n2C)c1C` [Compound 5-3, (3S)-3-{[8-(1-ethyl-5-methyl-1H-pyrazol-4-yl)-9-methyl-9H-purin-6-yl]oxy}-N-(1-methylethyl)pyrrolidine-1-carboxamide]: the “Relative Selectivity versus PI3Kalpha” value is given as over 10.

For the molecule `CCn1c(-c2cnc(C)nc2)nc2c(O[C@H]3CCN(C(=O)C=C(C)C)C3)ncnc21` [Compound 2-116, 9-ethyl-6-{[(3S)-1-(3-methylbut-2-enoyl)pyrrolidin-3-yl]oxy}-8-(2-methylpyrimidin-5-yl)-9H-purine], the “Relative Selectivity versus PI3Kalpha” value is given as over 10. With `CCC(=O)N1CC[C@H](Oc2ncnc3c2nc(-c2ccc(OC)c(F)c2)n3C)C1` [Compound 3-32, 8-(3-fluoro-4-methoxyphenyl)-9-methyl-5-{[(3S)-1-propanoylpyrrolidin-3-yl]oxy}-9H-purine], the “Relative Selectivity versus PI3Kalpha” value is recorded as over 10.

With `CCn1ncc(-c2nc3c(O[C@H]4CCN(C(=O)c5cnn(C(C)C)c5)C4)ncnc3n2C)c1C` [Compound 2-31, 8-(1-ethyl-5-methyl-1H-pyrazol-4-yl)-9-methyl-6-{[(3S)-1-{[1-(1-methylethyl)-1H-pyrazol-4-yl]carbonyl}pyrrolidin-3-yl]oxy}-9H-purine], the “Relative Selectivity versus PI3Kalpha” value is on record as 5. Consider `CCn1ncc(-c2nc3c(OC4CCN(C(=O)C5CCCCC5)C4)ncnc3n2C)c1C` (stereo not shown) [Compound 2-4, 6-{[1-(cyclohexylcarbonyl)pyrrolidin-3-yl]oxy}-8-(1-ethyl-5-methyl-1H-pyrazol-4-yl)-9-methyl-9H-purine], for which the “Relative Selectivity versus PI3Kalpha” value is listed as over 10. `CCn1ncc(-c2nc3c(OC4CCN(C(=O)C5CCCC5)C4)ncnc3n2C)c1C` (stereo not shown) [Compound 2-2, 6-{[1-(cyclopentylcarbonyl)pyrrolidin-3-yl]oxy}-8-(1-ethyl-5-methyl-1H-pyrazol-4-yl)-9-methyl-9H-purine]: the “Relative Selectivity versus PI3Kalpha” value is over 10. The figure for `CCn1c(C(=O)NCC(F)(F)F)nc2c(O[C@H]3CCN(C(=O)OC(C)(C)C)C3)ncnc21` [Compound 15-1, tert-butyl (3S)-3-({9-ethyl-8-[(2,2,2-trifluoroethyl)carbamoyl]-9H-purin-6-yl}oxy)pyrrolidine-1-carboxylate] is over 10; for `CCn1c(-c2cnc(C)nc2)nc2c(O[C@H]3CCN(c4cc(C)ccn4)C3)ncnc21` [Compound 7-18, 9-ethyl-6-{[(3S)-1-(4-methylpyridin-2-yl)pyrrolidin-3-yl]oxy}-8-(2-methylpyrimidin-5-yl)-9H-purine] it is over 10. In the case of `CCn1c(-c2cnc(C)nc2)nc2c(OC3CN(C(=O)C4CC4)CC3CF)ncnc21` (single isomer, unassigned) [Compound 3-69, cyclopropyl([(3S,4R) or (3R,4S)]-3-((9-ethyl-8-(2-methylpyrimidin-5-yl)-9H-purin-6-yl)oxy)-4-(fluoromethyl)pyrrolidin-1-yl)methanone], the “Relative Selectivity versus PI3Kalpha” value is reported as over 10. Regarding `CCn1c(-c2cnc(C)nc2C)nc2c(O[C@H]3CCN(C(=O)C4CC4)C3)ncnc21` [Compound 3-29, 6-{[(3S)-1-(cyclopropylcarbonyl)pyrrolidin-3-yl]oxy}-8-(2,4-dimethylpyrimidin-5-yl)-9-ethyl-9H-purine], the “Relative Selectivity versus PI3Kalpha” value is recorded as over 10.

Turning to `CCn1c(-c2ccnc(OC)c2)nc2c(O[C@H]3CCN(C(=O)C4CC4)C3)ncnc21` [Compound 2-144, 6-{[(3S)-1-(cyclopropylcarbonyl)pyrrolidin-3-yl]oxy}-9-ethyl-8-(2-methoxypyridin-4-yl)-9H-purine], the “Relative Selectivity versus PI3Kalpha” value is reported as over 10. As to `CCC1CN(C(=O)C2CC2)C[C@H]1Oc1ncnc2c1nc(-c1cnc(C)nc1)n2CC` (single isomer, unassigned) [Compound 3-47, [3R,4S or 3S,4R]-6-{[1-(cyclopropylcarbonyl)-4-ethylpyrrolidin-3-yl]oxy}-9-ethyl-8-(2-methylpyrimidin-5-yl)-9H-purine], the “Relative Selectivity versus PI3Kalpha” value is recorded as over 10.

Regarding `CCn1ncc(-c2nc3c(O[C@H]4CCN(c5ncnc6sc(C)cc56)C4)ncnc3n2C)c1C` [Compound 7-2, 8-(1-ethyl-5-methyl-1H-pyrazol-4-yl)-9-methyl-6-{[(3S)-1-(6-methylthieno[2,3-d]pyrimidin-4-yl)pyrrolidin-3-yl]oxy}-9H-purine], the “Relative Selectivity versus PI3Kalpha” value is on record as over 10.

In the case of `CCn1c(-c2cnc(C)nc2)nc2c(OC3(C)CCN(C(=O)C4CC4)C3)ncnc21` (stereo not shown) [Compound 2-141, 6-{[1-(cyclopropylcarbonyl)-3-methylpyrrolidin-3-yl]oxy}-9-ethyl-8-(2-methylpyrimidin-5-yl)-9H-purine], the “Relative Selectivity versus PI3Kalpha” value was over 10. For `CCn1c(-c2cnc(C)nc2)nc2c(O[C@H]3CCN(c4cccc(F)c4)C3)ncnc21` [Compound 7-21, 9-ethyl-6-{[(3S)-1-(3-fluorophenyl)pyrrolidin-3-yl]oxy}-8-(2-methylpyrimidin-5-yl)-9H-purine], the “Relative Selectivity versus PI3Kalpha” value is over 10. The figure for `CCn1c(-c2cnc(OC)c(Cl)c2)nc2c(O[C@H]3CCN(C(=O)C4CC4)C3)ncnc21` [Compound 3-28, 8-(5-chloro-6-methoxypyridin-3-yl)-6-{[(3S)-1-(cyclopropylcarbonyl)pyrrolidin-3-yl]oxy}-9-ethyl-9H-purine] is over 10.

(Values after patent publication US9730940B2, “Purine inhibitors of human phosphatidylinositol 3-kinase delta” (priority 2012, dated 2017).)
